In the supplement of paper PMC10307832:

Columns and labels:
Experiment in all cases: relative viability (nuclei count vs DMSO), 5 days (fraction); higher = more cells survive
[1] = compound: CC1=CN=C(N=C1C2=CNC(=C2)C(=O)N[C@H](CO)C3=CC(=CC=C3)Cl)NC4=C(C=C(C=C4)F)Cl [VX-11e] + O=C(c1cc(Cc2n[nH]c(=O)c3ccccc23)ccc1F)N1CCN(C(=O)C2CC2)CC1 [Olaparib] (partner 8 µM)
Method in brief: (§1)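 Medians of duplicate plates are given as relative viability. That measure is the nuclei count in treated wells divided by the count in vehicle wells. Counts were taken on 4× images of lung cancer cell lines in 1536-well plates, 5 days after pin-tool dosing the day after seeding with one drug alone or a fixed anchor-drug dose plus five library-drug doses (not always all listed) in √10 steps.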

[2] = compound: CC1=CN=C(N=C1C2=CNC(=C2)C(=O)N[C@H](CO)C3=CC(=CC=C3)Cl)NC4=C(C=C(C=C4)F)Cl [VX-11e] + CC(=O)Nc1cccc(-n2c(=O)n(C3CC3)c(=O)c3c(Nc4ccc(I)cc4F)n(C)c(=O)c(C)c32)c1 [Trametinib] (partner 0.02 µM)
Method in brief: as §1

[3] = compound: CC1=CN=C(N=C1C2=CNC(=C2)C(=O)N[C@H](CO)C3=CC(=CC=C3)Cl)NC4=C(C=C(C=C4)F)Cl [VX-11e] + N=C(N)NC(=N)NCCc1ccccc1 [Phenformin] (partner 250 µM)
Method in brief: as §1

[4] = compound: CC1=CN=C(N=C1C2=CNC(=C2)C(=O)N[C@H](CO)C3=CC(=CC=C3)Cl)NC4=C(C=C(C=C4)F)Cl [VX-11e]
Method in brief: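 Lung cancer cell lines received five library-drug doses (not always all listed) spaced by √10, pinned on vehicle-anchored 1536-well plates after an overnight stay at 37 °C. Five days later, with no medium change, nuclei were Hoechst-stained, imaged at 4× and counted with MetaXpress. Viability is treated-well nuclei relative to vehicle-well nuclei, as a median across plates. Passing plates had control CV below 25% and at least one doubling.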

| Cell Line | relative viability ([1]; first compound 0.1265 µM) | relative viability ([1]; first compound 1.265 µM) | relative viability ([1]; first compound 4 µM) | relative viability ([2]; first compound 0.1265 µM) | relative viability ([2]; first compound 1.265 µM) | relative viability ([2]; first compound 4 µM) | relative viability ([3]; first compound 0.04 µM) | relative viability ([3]; first compound 0.1265 µM) | relative viability ([3]; first compound 0.4 µM) | relative viability ([3]; first compound 1.265 µM) | relative viability ([3]; first compound 4 µM) | relative viability ([4]; 0.04 µM) | relative viability ([4]; 0.1265 µM) | relative viability ([4]; 0.4 µM) | relative viability ([4]; 1.265 µM) | relative viability ([4]; 4 µM) | relative viability ([1]; first compound 0.04 µM) | relative viability ([1]; first compound 0.4 µM) | relative viability ([2]; first compound 0.04 µM) | relative viability ([2]; first compound 0.4 µM) |
| --- | --- | --- | --- | --- | --- | --- | --- | --- | --- | --- | --- | --- | --- | --- | --- | --- | --- | --- | --- | --- |
| NCI-H1792 | 0.541 | 0.518 | 0.287 | 0.392 | 0.322 | 0.102 | 0.151 | 0.386 | 0.137 | 0.0901 | 0.038 | 0.604 | 0.852 | 0.236 | 0.534 | 0.174 |  |  |  |  |
| NCI-H2228 | 0.631 | 0.417 | 0.21 | 0.466 | 0.273 | 0.128 | 0.352 | 0.376 |  | 0.151 | 0.135 | 1.13 | 0.954 | 0.407 | 0.776 | 0.428 | 0.681 | 0.362 | 0.518 | 0.0868 |
| LC-2-ad | 0.669 | 0.673 | 0.687 | 0.856 | 0.755 | 0.537 | 0.525 | 0.461 | 0.395 | 0.372 | 0.467 | 1.01 | 0.823 | 0.662 | 0.603 | 0.66 | 0.713 | 0.746 | 0.998 | 0.881 |
| HARA | 0.705 | 0.295 | 0.525 | 0.636 | 0.209 | 0.244 | 0.453 | 0.431 | 0.414 | 0.399 | 0.314 | 0.969 | 0.939 | 0.832 | 0.427 | 0.326 | 0.893 | 0.939 | 0.589 | 0.64 |
| PC-14 | 0.261 | 0.22 | 0.214 | 0.697 | 0.413 | 0.216 | 0.539 | 0.552 | 0.196 | 0.472 | 0.239 | 1.05 | 0.954 | 0.659 | 0.799 | 0.491 | 0.269 | 0.222 | 0.734 | 0.624 |
| LCLC-97TM1 | 0.363 |  | 0.103 | 0.179 |  | 0.0986 | 0.525 | 0.393 | 0.347 | 0.516 | 0.382 | 0.911 | 0.889 | 0.797 | 0.499 | 0.541 | 0.432 | 0.29 | 0.21 | 0.17 |
| LU99A | 0.247 | 0.226 | 0.221 | 0.316 | 0.272 | 0.258 | 0.881 | 0.754 | 0.28 | 0.907 | 0.382 | 1.03 | 0.933 | 0.802 | 0.77 | 0.394 | 0.248 | 0.298 | 0.504 | 0.421 |
| NCI-H1651 | 0.201 | 0.152 | 0.177 | 0.808 | 0.691 | 0.781 | 0.347 | 0.301 | 0.23 | 0.314 | 0.305 | 0.934 | 0.921 | 0.959 | 0.861 | 0.939 | 0.169 | 0.209 | 0.881 | 0.78 |
| NCI-H460 | 0.429 | 0.315 | 0.236 | 0.161 | 0.0437 | 0.0311 | 0.588 | 0.471 | 0.127 | 0.174 | 0.0711 | 1.03 | 0.972 | 0.858 | 0.886 | 0.342 | 0.427 |  | 0.134 | 0.0116 |
| UMC-11 | 0.369 | 0.335 | 0.38 | 0.626 | 0.357 | 0.551 | 0.291 | 0.309 | 0.28 | 0.301 | 0.283 | 0.757 | 0.909 | 0.962 | 0.791 | 0.889 | 0.377 | 0.331 | 0.563 | 0.563 |
| ChaGo-K-1 | 0.473 | 0.43 | 0.378 | 0.909 | 0.881 | 0.869 | 0.435 | 0.478 | 0.382 | 0.472 | 0.407 | 0.926 | 0.903 | 0.925 | 1.03 | 0.905 | 0.451 | 0.416 | 0.928 | 0.842 |
| NCI-H1666 | 0.77 | 0.742 | 0.649 | 0.77 | 0.848 | 0.726 | 0.556 | 0.554 | 0.478 | 0.569 | 0.503 | 1.02 | 0.978 | 0.764 | 0.805 | 0.679 | 0.756 |  | 0.866 |  |
| NCI-H23 | 0.366 | 0.324 | 0.186 | 0.339 | 0.223 | 0.219 | 0.682 | 0.701 |  | 0.666 | 0.436 | 0.82 | 0.854 | 0.198 | 0.411 | 0.271 | 0.292 | 0.359 | 0.276 | 0.287 |
